Measured values from PubChem BioAssay AID248 (DTP/NCI, 2004).
Toxic doses and inconclusive results are not listed. Cut-off read from the data, not from the text of the source: active = T/C of 150% or more; inactive = T/C below 125%.

System: L1210 leukemia ip in BDF1 mice, survival T/C
Assay: NCI In Vivo Anticancer Drug Screen. Data for tumor model L1210 Leukemia (intraperitoneal) in B6D2F1 (BDF1) mice
Conditions: endpoint: mean survival time, higher = longer survival
How it was run: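 Antitumor effect is assessed in tumor-bearing animals. Survival in the compound arm is compared with a vehicle-dosed control arm and expressed as their quotient.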

[1] = dose: 100.0 mg/kg/injection, schedule: Q01DX009 (ip), vehicle: Klucel (hydroxypropylcellulose) (HPC)
[2] = dose: 100.0 mg/kg/injection, schedule: Q04DX002 (ip), vehicle: Klucel (hydroxypropylcellulose) (HPC)
[3] = dose: 200.0 mg/kg/injection, schedule: Q01DX009 (ip), vehicle: Klucel (hydroxypropylcellulose) (HPC)
[4] = dose: 200.0 mg/kg/injection, schedule: Q04DX002 (ip), vehicle: Klucel (hydroxypropylcellulose) (HPC)
[5] = dose: 400.0 mg/kg/injection, schedule: Q04DX002 (ip), vehicle: Klucel (hydroxypropylcellulose) (HPC)
[6] = dose: 100.0 mg/kg/injection, schedule: Q01DX001 (ip), vehicle: Klucel (hydroxypropylcellulose) (HPC)
[7] = dose: 200.0 mg/kg/injection, schedule: Q01DX001 (ip), vehicle: Klucel (hydroxypropylcellulose) (HPC)
[8] = dose: 400.0 mg/kg/injection, schedule: Q01DX001 (ip), vehicle: Klucel (hydroxypropylcellulose) (HPC)
[9] = dose: 100.0 mg/kg/injection, schedule: Q01DX001 (ip), vehicle: saline
[10] = dose: 200.0 mg/kg/injection, schedule: Q01DX001 (ip), vehicle: saline
[11] = dose: 400.0 mg/kg/injection, schedule: Q01DX001 (ip), vehicle: saline
[12] = dose: 400.0 mg/kg/injection, schedule: Q01DX009 (ip), vehicle: Klucel (hydroxypropylcellulose) (HPC)
[13] = dose: 100.0 mg/kg/injection, schedule: Q04DX003 (ip), vehicle: saline with Tween-80
[14] = dose: 100.0 mg/kg/injection, schedule: Q04DX003 (ip), vehicle: Klucel (hydroxypropylcellulose) (HPC)
[15] = dose: 200.0 mg/kg/injection, schedule: Q04DX003 (ip), vehicle: Klucel (hydroxypropylcellulose) (HPC)
[16] = dose: 400.0 mg/kg/injection, schedule: Q04DX003 (ip), vehicle: Klucel (hydroxypropylcellulose) (HPC)
[17] = dose: 200.0 mg/kg/injection, schedule: Q04DX003 (ip), vehicle: saline with Tween-80
[18] = dose: 400.0 mg/kg/injection, schedule: Q04DX003 (ip), vehicle: saline with Tween-80
[19] = dose: 200.0 mg/kg/injection, schedule: Q01DX001 (ip), vehicle: saline with Tween-80
[20] = dose: 100.0 mg/kg/injection, schedule: Q01DX001 (ip), vehicle: carboxymethylcellulose (CMC)
[21] = dose: 200.0 mg/kg/injection, schedule: Q01DX001 (ip), vehicle: carboxymethylcellulose (CMC)
[22] = dose: 400.0 mg/kg/injection, schedule: Q01DX001 (ip), vehicle: carboxymethylcellulose (CMC)
[23] = dose: 100.0 mg/kg/injection, schedule: Q01DX009 (ip), vehicle: saline with Tween-80
[24] = dose: 200.0 mg/kg/injection, schedule: Q01DX009 (ip), vehicle: saline with Tween-80
[25] = dose: 400.0 mg/kg/injection, schedule: Q01DX009 (ip), vehicle: saline with Tween-80

Measured: T/C

Cc1cn(-c2ccccc2)c(C)c(C(=O)O)c1=O
inactive: dose: 100.0 mg/kg/injection, schedule: Q01DX001 (ip), vehicle: other 101 % of control | dose: 200.0 mg/kg/injection, schedule: Q01DX001 (ip), vehicle: other 102 % of control | dose: 400.0 mg/kg/injection, schedule: Q01DX001 (ip), vehicle: other 91 % of control

O=C(O)c1c(Br)c(Br)c(Br)c(Br)c1C(=O)Nc1ccc([N+](=O)[O-])cc1
inactive: [1] 104 % of control | [2] 96 % of control | [3] 109 % of control | [4] 96 % of control | [5] 107 % of control

CCOc1ccc(NC(C)=O)cc1CN(CCCl)CCBr
inactive: [6] 97 % of control | [7] 111 % of control | [8] 100 % of control

Cc1cc(Cl)c2ccccc2[n+]1C
inactive: dose: 100.0 mg/kg/injection, schedule: Q04DX003 (ip), vehicle: saline 98 % of control

CN(C)C=Nc1c(I)cc(I)c(CCC(=O)O)c1I
inactive: [9] 96 % of control | [10] 96 % of control | [11] 94 % of control

N=C1C(=O)C(=N)c2ccccc2-c2ccccc21
inactive: [1] 94 % of control | [3] 97 % of control | [12] 95 % of control

CCCCN(CCC#N)CCCC
inactive: dose: 25.0 mg/kg/injection, schedule: Q04DX003 (ip), vehicle: saline with Tween-80 111 % of control | dose: 29.5 mg/kg/injection, schedule: Q01DX009 (ip), vehicle: saline with Tween-80 107 % of control | dose: 50.0 mg/kg/injection, schedule: Q04DX003 (ip), vehicle: saline with Tween-80 105 % of control | dose: 59.0 mg/kg/injection, schedule: Q01DX009 (ip), vehicle: saline with Tween-80 107 % of control | [13] 97 % of control | dose: 118.0 mg/kg/injection, schedule: Q01DX009 (ip), vehicle: saline with Tween-80 108 % of control

CCCN1CCc2cc(OC)c(OC)cc2C1Cc1ccc(OC)c(OC)c1 (centres undefined)
inactive: dose: 75.0 mg/kg/injection, schedule: Q01DX001 (ip), vehicle: other 109 % of control | dose: 150.0 mg/kg/injection, schedule: Q01DX001 (ip), vehicle: other 102 % of control

CC(C)(C)c1ccc(OC(=O)Nc2ccc(Cl)cc2[N+](=O)[O-])c(Br)c1
inactive: [1] 98 % of control | [3] 93 % of control | [12] 98 % of control

Nc1ccc(S(=O)(=O)Nc2cccc3ccccc23)cc1
inactive: [1] 100 % of control | [14] 90 % of control | [3] 99 % of control | [15] 92 % of control | [12] 101 % of control | [16] 95 % of control

CC(C)(C)C(=O)[CH-]C(=O)C(C)(C)C.CC(C)(C)C(=O)[CH-]C(=O)C(C)(C)C.CC(C)(C)C(=O)[CH-]C(=O)C(C)(C)C.CS(C)=O.[Er+3]
inactive: [6] 98 % of control | [14] 103 % of control | [7] 101 % of control | [15] 98 % of control | [8] 96 % of control | [16] 103 % of control

CCCCCOc1ccc(C(=O)/C(Br)=C/C(=O)O)cc1
inactive: dose: 12.5 mg/kg/injection, schedule: Q01DX009 (ip), vehicle: saline with Tween-80 98 % of control | dose: 25.0 mg/kg/injection, schedule: Q01DX009 (ip), vehicle: saline with Tween-80 96 % of control | dose: 50.0 mg/kg/injection, schedule: Q01DX009 (ip), vehicle: saline with Tween-80 101 % of control

CCCCCCCCCCCCCCCCCOC(=O)CCCCCCCCCCCCC
inactive: [1] 91 % of control | [13] 90 % of control | [3] 96 % of control | [17] 88 % of control | [12] 98 % of control | [18] 92 % of control

CC12C(=O)OC(=O)C1C1C=CC2CC1 (centres undefined)
inactive: [13] 101 % of control | [17] 98 % of control | [18] 101 % of control

CC(=O)OC1=C(C)CCC1=O
inactive: [9] 89 % of control | [10] 95 % of control | [11] 89 % of control

N#CCCN(CCC#N)[N+](=O)[O-]
inactive: dose: 87.5 mg/kg/injection, schedule: Q01DX009 (ip), vehicle: Klucel (hydroxypropylcellulose) (HPC) 97 % of control | [2] 98 % of control | dose: 100.0 mg/kg/injection, schedule: Q04DX002 (ip), vehicle: saline + alcohol 97 % of control | dose: 175.0 mg/kg/injection, schedule: Q01DX009 (ip), vehicle: Klucel (hydroxypropylcellulose) (HPC) 100 % of control | [4] 102 % of control | dose: 200.0 mg/kg/injection, schedule: Q04DX002 (ip), vehicle: saline + alcohol 105 % of control | [5] 87 % of control | dose: 400.0 mg/kg/injection, schedule: Q04DX002 (ip), vehicle: saline + alcohol 101 % of control

CCC1(O)C(=O)OCc2c1c(Br)c(-c1ccccc1)n(C)c2=O (centres undefined)
inactive: dose: 25.0 mg/kg/injection, schedule: Q01DX001 (ip), vehicle: saline with Tween-80 110 % of control | dose: 50.0 mg/kg/injection, schedule: Q01DX001 (ip), vehicle: saline with Tween-80 102 % of control | [19] 121 % of control

COC(=O)/C=C/C=C(c1ccccc1)c1ccccc1
inactive: [20] 93 % of control | [21] 102 % of control | [22] 102 % of control

CC(=O)OC1CCC2(C)C(=CC=C3C2CCC2(C)C(C(C)=O)CCC32)C1 (centres undefined)
inactive: [2] 86 % of control | [4] 110 % of control | [5] 104 % of control

CC(=O)OC(CC/C(C)=C/COC1CCCCO1)C(C)(C)O (centres undefined)
inactive: dose: 100.0 mg/kg/injection, schedule: Q01DX001 (ip), vehicle: saline with Tween-80 102 % of control | [23] 95 % of control | [19] 103 % of control | [24] 98 % of control | dose: 400.0 mg/kg/injection, schedule: Q01DX001 (ip), vehicle: saline with Tween-80 105 % of control | [25] 96 % of control

COc1ccc(C2CC(O)C3CCC2C3)cc1 (centres undefined)
inactive: [2] 93 % of control | [4] 97 % of control | [5] 93 % of control

CC(C)(C)O[Si](C)(C)CCl
inactive: [20] 92 % of control | [21] 92 % of control | [22] 92 % of control

O=[N+]([O-])c1ccccc1N=Nc1c(O)[nH]c2ccc(Cl)cc12
inactive: [9] 95 % of control | [11] 92 % of control

CCCCCCCCCC[Si](C)(C)C
inactive: [9] 100 % of control | [10] 97 % of control | [11] 100 % of control

Cc1[nH]c2ccccc2c1C1=CC(=O)c2ccccc2C1=O
inactive: [9] 93 % of control | [10] 112 % of control | [11] 98 % of control

CCCOP(=S)(NCCOC)OCCC
inactive: [23] 97 % of control | [24] 100 % of control | [25] 89 % of control

C[n+]1ccsc1
inactive: [13] 104 % of control | [17] 103 % of control | [18] 97 % of control
